Results as given in patent US20210029991A1, “TRISILOXANE ALKOXYLATE COMPOSITIONS” (Momentive Performance Materials Inc., priority 2018, published 2021).
Where “and” joins values, the source holds several entries; their conditions need not be identical. Equal values may be shown once.

Tests used:
[1] = Dynamic surface tension (Kruss Maximum Bubble Pressure tensiometer); type: physicochemical; conditions: 0.4 wt % in deionized water
Experimental: Dynamic surface tension (DST) was measured using a Kruss Maximum Bubble Pressure tensiometer. TSA solutions were prepared at 0.4 wt % in deionized water, further purified with a Milli-Q ultrapure filtration system (Millipore Corp.). The data for surface tension vs time (milliseconds) was plotted and then the surface tension was calculated from a trend line to generate surface tension data at 75, 100, 150 and 200 milliseconds (mSec).

[2] = system: bean leaf (Vicia faba); test: Uptake (stomatal infiltration) of ^14C-glyphosate isopropylamine salt into bean leaf; type: in vivo
Experimental: The impact of the TSA-1/TSA-2 blends on the uptake of ^14C-glyphosate (herbicide) solutions into bean leaf (Vicia fava) was determined at 10 minutes after application, according to the method described by Stevens et al., Contributions of stomatal infiltration and cuticular penetration to enhancements of foliar uptake by surfactants. […]. Sci., 33, 371-382, to establish the contribution of trisiloxane alkoxylate (TSA) surfactants on the speed of uptake, via stomatal infiltration). Here glyphosate solutions containing 0.4% TSA surfactant was applied to bean leaf using a micro-syringe. At 10 minutes after application, the leaf was washed with aqueous ethanol and uptake was determined by subtraction, using a scintillation counter to measure residual ^14C-glyphosate-IPA salt (Stevens et al. […]. Sci., 33, 371-382). The uptake by stomatal infiltration of ^14C-glyphosate-isopropyl amine salt into bean-leaf (Vicia faba) at 10 minutes after application was determined as outlined in Example 4.

C[Si](C)(C)O[Si](C)(CCCOCCOCCOCCOCCOCCOCCOCCOCCO)O[Si](C)(C)C [TSA-1-B]
Dynamic Surface Tension, IFDT 75 mSec ([1]; calculated from trend line at 75 mSec): 49.5 mN/m
Dynamic Surface Tension, IFDT 100 mSec ([1]; calculated from trend line at 100 mSec): 47.6 mN/m
Dynamic Surface Tension, IFDT 150 mSec ([1]; calculated from trend line at 150 mSec): 43.9 mN/m
Dynamic Surface Tension, IFDT 200 mSec ([1]; calculated from trend line at 200 mSec): 40.1 mN/m
Uptake (%) Observed ([2]; ^14C-glyphosate into bean, 0.4% TSA adjuvant, 10 minutes after application): 79.3 ab % and 90.2 a % and 88.0 ab % and 85.9 a %
Uptake (%) Predicted ([2]; weighted average of the components, 0.4% adjuvant, 10 minutes): 79.3% and 90.2% and 88.0% and 85.9%
